{
  "source": "patent US20230398130A1",
  "about": "“METHODS AND COMPOSITIONS FOR DIFFERENTIATING STEM CELLS” (Massachusetts Institute of Technology, priority 2020, published 2023)",
  "assay_type_in_all_cases": "cell-based, murine",
  "key": {"[1]": {"test_system": "ENR+CD differentiating organoids", "assay": "Longitudinal single-cell RNA-seq (Seq-Well) of organoid differentiation, ENR+CD with or without 160 nM KPT-330", "source_text": "For time points beyond 2 days, media was refreshed every other day. Following the Seq-Well protocol Applicants followed a standard library preparation, sequencing, and alignment process (see Methods). […] Single-cell RNA-sequencing. A single-cell suspension was obtained from organoids cultured under conditions for the differentiation time course as described above. Applicants utilized the Seq-Well platform for massively parallel scRNA-seq to capture transcriptomes of single cells on barcoded mRNA capture beads. […] In brief, 20,000 cells from one organoid condition were loaded onto one array containing 100,000 barcoded mRNA capture beads. The loaded arrays containing cells and beads were then sealed using a polycarbonate membrane with a pore size of […], which allows for exchange of buffers but retains biological molecules confined within each microwell. Subsequent exchange of buffers allows for cell lysis, transcript hybridization, and bead recovery before performing reverse transcription en masse. Following reverse transcription and exonuclease treatment to remove excess primers, PCR amplification was carried out using KAPA HiFi PCR Mastermix with 2,000 beads per 50 μL reaction volume. Libraries were then pooled and purified using Agencourt AMPure XP beads (Beckman Coulter, A63881) by a 0.6×SPRI followed by a 0.8×SPRI and quantified using Qubit […] (Thermo Fisher). Libraries were constructed using the Nextera Tagmentation method on a total of 800 pg of pooled cDNA library per sample. […] Arrays were sequenced with an Illumina NovaSeq System. The read structure was paired end with Read 1 starting from a custom read 1 primer containing 20 bases with a 12 bp cell barcode and 8 bp unique molecular identifier (UMI) and Read 2 being 50 bases containing transcript information. Single-cell RNA-sequencing computational pipelines and analysis. […] Briefly, for each sequencing run, raw sequencing data was converted to demultiplexed FASTQ files using bcl2fastq2 based on Nextera N700 indices corresponding to individual samples/arrays. […] Individual reads were tagged according to the 12-bp barcode sequencing and the 8-bp UMI contained in Read 1 of each fragment. Following alignment, reads were binned onto 12-bp cell barcodes and collapsed by their 8-bp UMI. Digital gene expression matrices (e.g. cell by gene tables) for each sample were obtained from quality filtered and mapped reads and UMI-collapsed data, are deposited in GSE100274, and were utilized as input into Seurat v3 for further analysis. […] Applicants collected 17 samples at the following timepoints: 6 hours (0.25 days), and 1, 2, 3, 4, or 6 days. […] For time points beyond 2 days, media was refreshed every other day. […] Murine and human single-cell RNA-sequencing and alignment. […] Excess Matrigel was removed per previously described washing protocol, and organoids were resuspended in TrypLE at 37 C for 15 min, with vigorous homogenization through a p200 pipette tip every 5 min. After 15 min, the suspension was passed through a 30 uM cell strainer twice, and counted under brightfield microscopy with trypan blue staining for viable single cells. For human organoid scRNA-seq, antibody-based cell hashing was performed, with all samples pooled following labeling and three washes in FACS buffer to remove excess antibody. Each sample was manually counted to equally weight in cell pools, and then the pool was split and processed as four identical samples."}, "[2]": {"test_system": "ISC-enriched organoids", "assay": "Primary screen, 384-well 2.5-D organoid differentiation (ENR+CD, 6 days): carbachol-induced lysozyme secretion (LYZ.S)", "settings": "primary screen; for Z.LYZ.S: standard z score; for SSMD.LYZ.S: strictly standardized mean difference", "source_text": "(§1) High-throughput screening."}, "[3]": {"test_system": "ISC-enriched organoids", "assay": "Lysozyme secretion assay, 3-D organoids in ENR+CD, normalized to ATP", "description": "Lysozyme assay (3D culture). ISC-enriched organoids cultured in 3D Matrigel with ENRCV media were passaged to 48-well plate in 3D Matrigel with ENRCV. At day zero, media were replaced to ENR or ENRCD with or without indicated compounds, and media were replaced every other day. At day six, cells were washed twice with basal media and treated with carbamylcholine chloride (Sigma, C4382) for 3 hours. Media were collected and lysozyme activity was measured by EnzChek Lysozyme Assay Kit (ThermoFisher, E22013).\n(§2) Lysozyme secretion assay. ISC-enriched organoids in 3D Matrigel culture were passaged to a 48- or 96-well plate and cultured with ENR or ENR+CD media containing DMSO or each drug for 6 days. DMSO- or drug-containing media were changed every other day. On day 6, cells were washed with basal media twice and treated with basal media with or without 10 μM carbamoylcholine chloride for 3 h in a CO2 incubator at 37° C. A part of the conditioned media was collected and used for lysozyme assay (Thermo, E-22013) following the manufacturer's instruction. The fluorescence was measured using excitation/emission of 485/530 nm. CellTiter-Glo 3D Reagent (Promega, G9681) was added afterward, and the cell culture plate was incubated on an orbital shaker at RT for 30 min to induce cell lysis and to stabilize the luminescent signal. The solution was replaced to a 96-well white microplate, and luminescent signals were measured by a microplate reader (infinite M200, Tecan). The standard curve was prepared by diluting recombinant ATP (Promega, P1132). For both assays, a polynomial cubic curve was fitted to a set of standard data, and each sample value was calculated on the Microsoft Excel.\nas §2, with “in 3-D” for “in 3D”, “μM carbachol” for “μM carbamoylcholine chloride”, “3 hours” for “3 h”, “C. Conditioned” for “C. A part of the conditioned”, “nm. CTG” for “nm. CellTiter-Glo”, “Reagent” for “Reagent (Promega, G9681)”"}, "[4]": {"test_system": "ISC-enriched organoids", "assay": "Primary screen, 384-well 2.5-D organoid differentiation (ENR+CD, 6 days): basal lysozyme secretion (LYZ.NS)", "settings": "strictly standardized mean difference, primary screen", "source_text": "as §1"}, "[5]": {"settings": "1st of the 4 dose lines of the treatment (dose not given)"}, "[6]": {"settings": "2nd of the 4 dose lines of the treatment (dose not given)"}, "[7]": {"settings": "3rd of the 4 dose lines of the treatment (dose not given)"}, "[8]": {"settings": "4th of the 4 dose lines of the treatment (dose not given)"}},
  "note": "Entries after “also recorded” stand apart in the source; their conditions may differ.",
  "data": [
    {"compound": "O=C(/C=C\\n1cnc(-c2cc(C(F)(F)F)cc(C(F)(F)F)c2)n1)NNc1cnccn1", "note": "[KPT-330]", "values": [
      {"measurement": "organoid cell type composition over differentiation time course", "setting": "[1]; 160 nM KPT-330 vs control, day 0.25-6", "value": "enhances stem conversion to mature cells; also recorded: relative depletion of stem I (and stem II & III) and enteroendocrine cells over time along with the corresponding enrichment of enterocytes and Paneth cells"},
      {"measurement": "inferred signaling pathway activity (PROGENy), effect of KPT-330", "setting": "[1]; Cohen's d per pathway and cell type", "value": "pan-epithelial increase in stress-associated Trail signaling"},
      {"measurement": "inferred upstream TF activity clusters (DoRothEA), effect of KPT-330", "setting": "[1]; Fisher's exact test per cell type", "value": "depletion of cell cycle cluster 0 and enrichment in stress response cluster 6"},
      {"measurement": "active and quiescent ISC signature", "setting": "[1]; early stem cell populations, KPT-330 vs control", "value": "induces a quiescent ISC signature and reduces an active ISC signature; also recorded: transition into quiescence"},
      {"measurement": "differentially expressed genes, KPT-330 treated vs untreated", "setting": "[1]; stem II/III populations, day 0.25-2", "value": "most significantly enriched (Xpo1) and depleted (Kpnb1"},
      {"measurement": "gene set enrichment analysis (MSigDB hallmark v7)", "setting": "[1]; stem II/III populations, day 0.25-2, FDR<0.05", "value": "suppresses programs downstream of mitogen-driven signaling"},
      {"measurement": "Z.LYZ.S", "setting": "[2]; [5]", "value": 1.677},
      {"measurement": "Z.LYZ.S", "setting": "[2]; [6]", "value": "−1.821"},
      {"measurement": "Z.LYZ.S", "setting": "[2]; [7]", "value": "−2.523"},
      {"measurement": "Z.LYZ.S", "setting": "[2]; [8]", "value": "−2.733"},
      {"measurement": "SSMD.LYZ.S", "setting": "[2]; [5]", "value": 1.329},
      {"measurement": "SSMD.LYZ.S", "setting": "[2]; [6]", "value": "−0.894"},
      {"measurement": "SSMD.LYZ.S", "setting": "[2]; [7]", "value": "−1.575"},
      {"measurement": "SSMD.LYZ.S", "setting": "[2]; [8]", "value": "−1.599"},
      {"measurement": "LYZ secretion, dose dependency", "setting": "[3]; KPT-330 below 160 nM for 6 days, basal and Cch-stimulated", "value": "enhanced Paneth cell activity in a dose-dependent manner; also recorded: LYZ secretion increasing in a dose-dependent manner"},
      {"measurement": "enrichment in mature Paneth cells at day 6 (LYZ secretion assay)", "setting": "[3]; KPT-330 treatment day 4-6", "value": "minorly enriched; also recorded: slightly enriched"},
      {"measurement": "most effective dose among tested concentrations", "setting": "[3]; LYZ secretion, ENR+CD 6 days", "value": 160, "unit": "nM"},
      {"measurement": "SSMD.LYZ.NS", "setting": "[4]; [5]", "value": 1.021},
      {"measurement": "SSMD.LYZ.NS", "setting": "[4]; [6]", "value": "−1.822"},
      {"measurement": "SSMD.LYZ.NS", "setting": "[4]; [7]", "value": "−1.556"},
      {"measurement": "SSMD.LYZ.NS", "setting": "[4]; [8]", "value": "−1.714"}
    ]}
  ]
}
